Columns and labels:
[1] = system: rat mesangial cells; test: Toxicity rank and cell condition observed in the proline incorporation assay; type: cell-based; design: key to Tox. Rank (4 = non-toxic): (4 = non-toxic); settings: for Cell condition observed (sick, dead): 30 μM; for Cell condition observed (sick, dead, some death, cells elongated): 100 μM
Protocol: (§1) A well-characterised cloned rat mesangial cell line (Kakizaki Y, Kraft N, Atkins R C: Differential control of mesangial cell proliferation by interferon-gamma. Clin Exp Immunol 85:157-163, 1991) was cultured in DMEM (5 mM glucose) with 5% FBS, 100U/mL penicillin, and 100 ug/mL streptomycin in humidified 5% CO2 atmosphere at 37 C. Cells were used up to passage 40.
(§2) Cells were plated into 24-well culture dishes in DMEM/5% FBS and allowed to adhere overnight. The subconfluent cells were then starved overnight in DMEM/0.1% FBS and 150 uM L-ascorbic acid, prior to pre-treatment with or without FibroTech compounds for 4 hours at 10, 30 or 100 uM in 0.1% DMSO, final concentration. TGF-beta 1 at 5 ng/mL (Peprotech) and tritiated proline (Perkin-Elmer, (2,3,4,5-^3H)-proline) at 1 uCi/mL were added and the incubation continued for a further 44 hours. Treatments were performed in triplicate.

[2] = Compound precipitation observed during the proline incorporation assay; type: physicochemical; design: key: ppt indicates compound precipitated during assay
Protocol: as §2

[3] = system: rat mesangial cells; test: Proline incorporation assay: reduction of TGF-beta 1 stimulated proline incorporation; type: cell-based; settings: Mesangial cell, 44 h, TGF-beta 1 5 ng/mL, read-out: Percentage Reduction of TGF-Beta 1 Stimulated Proline Incorporation; for inhibition at 10 µM: 10 μM compound; for inhibition at 30 µM: 30 μM compound; for inhibition at 100 µM: 100 μM compound
Protocol: as §1
Proline Incorporation Assay
as §2
After the incubation, cells were placed on ice and washed three times with ice cold PBS. They were then incubated on ice with 10% TCA for 30 minutes, followed by a final wash in cold 10% TCA. The cells were solubilized in 0.75 mL of 1M NaOH at 37 C for 45 minutes, or overnight at 4 C. Aliquots of the solubilized cells were neutralized in an equal amount of 1M HCl and counted in scintillant in a beta counter. Aliquots of neutralized solubilized cells were assayed for protein using the BioRad Bradford Protein Assay. Proline incorporation was normalized for protein content (cpm ^3H-proline incorporated per ug protein).
In order to compare the results of experiments performed on different days, the percentage inhibition of proline incorporation was calculated for each treatment by setting the TGF treatment at 0% inhibition and the control (incubation with media alone) at 100% inhibition.
Percentage Reduction of TGF-Beta 1 Stimulated Proline Incorporation: […]

Row | melting point [°C] | SMILES | Tox. Rank (4 = non-toxic) ([1]; no concentration stated) | Compound precipitated during assay ([2]; 100 μM in 0.1% DMSO) | inhibition at 10 µM [3] [%] | inhibition at 30 µM [3] [%] | inhibition at 100 µM [3] [%] | Cell condition observed (sick, dead) [1] | Cell condition observed (sick, dead, some death, cells elongated) [1] | Compound precipitated during assay ([2]; 30 μM in 0.1% DMSO) | Tox. Rank (4 = non-toxic) ([1]; @30 uM) | Tox. Rank (4 = non-toxic) ([1]; @100 uM) | Compound precipitated during assay ([2]; 10 μM in 0.1% DMSO)
1 | 228 to 231 | COc1ccc(/C=C/c2nc3ncccc3c(=O)o2)cc1OC [FT102, (E)-2-(3,4-Dimethoxystyryl)-4H-pyrido[2,3-d][1,3]oxazin-4-one] | 4 | ppt | 0 | 0 | 10 |  |  |  |  |  | 
2 | 113 to 115 | O=c1oc(/C=C/c2ccc(OC(F)F)c(OC(F)F)c2)nc2ccccc12 [FT108, (E)-2-(3,4-Bis(difluoromethoxy)styryl)-4H-benzo[d][1,3]oxazin-4-one] | 4 |  | 75 | 95 | > 100 |  |  |  |  |  | 
3 | 118 to 120 | COc1ccc(/C=C/C(=O)N2CCc3ccccc32)cc1OC [FT113, (E)-3-(3,4-dimethoxyphenyl)-1-(indolin-1-yl)prop-2-en-1-one] | 4 |  | 20 | 67 | 44 |  |  |  |  |  | 
4 |  | COc1ccc(/C=C/C(=O)n2c(=O)n(C)c3ccccc32)cc1OC [FT123, (E)-1-(3-(3,4-Dimethoxyphenyl)acryloyl)-3-methyl-1H-benzo[d]imidazol-2(3H)-one] | 1 to 2 | ppt | 0 | 0 | 0 | sick | dead | ppt |  |  | 
5 |  | COc1ccc(/C=C/c2nc3ccccc3[nH]2)cc1OC [FT121, (E)-2-(3,4-Dimethoxystyryl)-1H-benzo[d]imidazole] |  |  | ~60 | > 100 |  |  | dead |  | 3@30 uM | 1@100 uM | 
6 |  | COc1ccc(/C=C/C(=O)n2c(=O)oc3ccccc32)cc1OC [FT124, (E)-3-(3-(3,4-Dimethoxyphenyl)acryloyl)benzo[d]oxazol-2(3H)-one] | 2 | ppt | 0 | 0 | 0 | sick | sick | ppt |  |  | ppt
7 |  | COc1cc2c(cc1OC)CCC(C(=O)Nc1ccccc1C(=O)O)=C2 [FT129, 2-(6,7-Dimethoxy-1,2-dihydronaphthalene-3-carboxamido)benzoic acid] |  |  | ~10 | ~75 |  |  | dead |  | 2@30 uM | 1@100 uM | 
8 |  | COc1ccc(/C=C/c2nc3ccccc3c(=O)o2)cc1OC(C)=O [FT110, (E)-2-(3-Acetoxy-4-methoxystyryl)-4H-benzo[d][1,3]oxazin-4-one] |  | ppt | 0 | 0 | 0 |  | (cells elongated) |  |  | 3@100 uM | 
9 |  | COc1cc2c(cc1OC)CC(C(=O)Nc1ccccc1C(=O)O)=C2 [FT126, 2-(5,6-Dimethoxy-1H-indene-2-carboxamido)benzoic acid] | 4 |  | ~55 | ~75 | ~100 |  |  |  |  |  | 
10 |  | COc1ccc(/C=C/C(=O)N2CC(=O)Nc3ccccc32)cc1OC [FT125, (E)-4-(3-(3,4-Dimethoxyphenyl)acryloyl)-3,4-dihydroquinoxalin-2(1H)-one] | 2 |  | 0 | 0 | 0 | sick | sick |  |  |  | 
11 |  | COc1ccc(/C=C/c2nc3c(C(=O)O)cccc3o2)cc1OC [FT132, (E)-2-(3,4-Dimethoxystyryl)benzo[d]oxazole-4-carboxylic acid] |  | ppt | ~2 | ~75 | ~75 |  | (some death) | ppt |  | 3@100 uM | 
12 |  | COc1cc2c(cc1OC)S(=O)(=O)C(C(=O)Nc1ccccc1C(=O)O)=C2 [FT128, 2-(1,1-Dioxo-5,6-dimethoxybenzo[b]thiophene-2-carboxamido)benzoic acid] |  |  | ~20 | ~20 | ~40 |  | (some death) |  |  | 3@100 uM | 
13 | 177 to 178 | C#CCOc1ccc(/C=C/c2nc3ccccc3c(=O)o2)cc1OC [FT107, (E)-2-(3-Methoxy-4-propargyloxystyryl)-4H-benzo[d][1,3]oxazin-4-one] | 4 | ppt | 0 | 0 | 0 |  |  |  |  |  | 
14 |  | COc1cc2nc(C(=O)Nc3ccccc3C(=O)O)[nH]c2cc1OC [FT127, 2-(5,6-Dimethoxy-1H-benzo[d]imidazole-2-carboxamido)benzoic acid] | 4 |  | 0 | 0 | ~50 |  |  |  |  |  | 
15 |  | COc1ccc(/C=C/c2nc3ccccc3c(=O)o2)cc1OC [FT106, (E)-2-(3,4-Dimethoxystyryl)-4H-benzo[d][1,3]oxazin-4-one] |  |  | 0 | 0 |  | sick | dead |  | 2@30 uM | 1@100 uM | 
16 |  | COc1cc2c(cc1OC)CC(C(=O)Nc1ccccc1C(=O)O)CC2 (stereo not drawn) [FT130, 2-(6,7-Dimethoxy-1,2,3,4-tetrahydronaphthalene-3-carboxamido)benzoic acid] |  |  | ~10 | ~30 | ~50 |  |  |  |  | 2@100 uM | 
17 |  | COc1ccc(/C=C/C(=O)N2CCOc3ccccc32)cc1OC [FT122, (E)-1-(2,3-Dihydrobenzo[b][1,4]oxazin-4-yl)-3-(3,4-dimethoxyphenyl)prop-2-en-1-one] |  |  | ~25 | ~80 |  |  | dead |  | 4@30 uM | 1@100 uM | 
18 |  | COc1cc2c(cc1OC)/C(=C/C(=O)Nc1ccccc1C(=O)O)CNC2=O [FT131, (Z)-2-(2-(6,7-Dimethoxy-1-oxo-2,3-dihydroisoquinolin-4(1H)-ylidene)acetamido)benzoic acid] | 4 |  | ~20 | ~10 | ~10 |  |  |  |  |  | 
19 | 276 to 279 | COc1ccc(/C=C/C2=NS(=O)(=O)c3ccccc3N2)cc1OC [FT98, (E)-3-[2-(3,4-Dimethoxyphenyl)ethenyl]-4H-1,2,4-benzothiadiazine-1,1-dioxide] | 4 |  | 30 | 70 | 70 |  |  |  |  |  | 

Row | SMILES | melting point [°C] | Tox. Rank (4 = non-toxic) ([1]; no concentration stated) | Compound precipitated during assay ([2]; 100 μM in 0.1% DMSO) | inhibition at 10 µM [3] [%] | inhibition at 30 µM [3] [%] | inhibition at 100 µM [3] [%] | Cell condition observed (sick, dead) [1] | Cell condition observed (sick, dead, some death, cells elongated) [1] | Compound precipitated during assay ([2]; 30 μM in 0.1% DMSO) | Tox. Rank (4 = non-toxic) ([1]; @30 uM) | Tox. Rank (4 = non-toxic) ([1]; @100 uM) | Compound precipitated during assay ([2]; 10 μM in 0.1% DMSO)
20 | COc1cc(/C=C/c2nc3ccccc3c(=O)o2)ccc1OC(C)=O [FT109, (E)-2-(4-Acetoxy-3-methoxystyryl)-4H-benzo[d][1,3]oxazin-4-one] | 185 to 186 | 4 | ppt | 3 | 16 | 75 |  |  |  |  |  | 

From patent US9951087B2, “Fused ring analogues of anti-fibrotic agents” (Fibrotech Therapeutics PTY LTD, priority 2009, dated 2018)
